Laboratory results reported in patent US12509459B2, “Inhibitors of NLRP3 inflammasome” (BioAge Labs, Inc., priority 2024, dated 2025).

molecular target: NLRP3 (Homo sapiens, UniProt Q96P20); experiment: THP-1 cell-based NLRP3 activation assay; parameters: endogenous in cells; host or cells: THP-1 cells (PMA-differentiated, LPS-primed, nigericin-stimulated); conditions: PMA-differentiated THP-1 cells, LPS 100 ng/mL then 10 μM nigericin
Description: THP-1 cells are cultured in complete media (CM) until they reach logarithmic growth and achieve a viability >90%. CM is composed of RPMI-1640 (+Glutamax)/10% fetal bovine serum/55 μM β-mercaptoethanol/pen/strep. Cells are spun down and resuspended to 1,000,000 cells/mL in CM containing either 20 nM or 500 nM PMA. 150,000 cells (150 μL) are then added to each well of a 96-well TC plate and incubated for either 24 hr or 3 hr, respectively, in a standard cell culture incubator (37° C.; 5% CO2). After this incubation, the plate is tilted and media carefully removed. 200 μL of CM containing 100 ng/mL LPS is then added to the wells and the cells incubated an additional 3 hrs. The media is again removed and replaced with Opti-Mem medium containing pre-determined dilutions of test compounds in replicate wells. After a 30 min incubation, 10 μM nigericin (final concentration) in Opti-Mem medium with the corresponding concentration of compound is added to the wells for an additional 1 hr. Positive control wells contain 10 μM nigericin in Opti-Mem in the absence of test compound, while negative control wells contain Opti-Mem only. […] Once supernatants are removed, the relative viability of adherent cells in the 96-well TC plate are determined using a CellTiter-Glo® luminescent cell viability assay (Promega).

NLRP3, sequence (Q96P20 whole entry): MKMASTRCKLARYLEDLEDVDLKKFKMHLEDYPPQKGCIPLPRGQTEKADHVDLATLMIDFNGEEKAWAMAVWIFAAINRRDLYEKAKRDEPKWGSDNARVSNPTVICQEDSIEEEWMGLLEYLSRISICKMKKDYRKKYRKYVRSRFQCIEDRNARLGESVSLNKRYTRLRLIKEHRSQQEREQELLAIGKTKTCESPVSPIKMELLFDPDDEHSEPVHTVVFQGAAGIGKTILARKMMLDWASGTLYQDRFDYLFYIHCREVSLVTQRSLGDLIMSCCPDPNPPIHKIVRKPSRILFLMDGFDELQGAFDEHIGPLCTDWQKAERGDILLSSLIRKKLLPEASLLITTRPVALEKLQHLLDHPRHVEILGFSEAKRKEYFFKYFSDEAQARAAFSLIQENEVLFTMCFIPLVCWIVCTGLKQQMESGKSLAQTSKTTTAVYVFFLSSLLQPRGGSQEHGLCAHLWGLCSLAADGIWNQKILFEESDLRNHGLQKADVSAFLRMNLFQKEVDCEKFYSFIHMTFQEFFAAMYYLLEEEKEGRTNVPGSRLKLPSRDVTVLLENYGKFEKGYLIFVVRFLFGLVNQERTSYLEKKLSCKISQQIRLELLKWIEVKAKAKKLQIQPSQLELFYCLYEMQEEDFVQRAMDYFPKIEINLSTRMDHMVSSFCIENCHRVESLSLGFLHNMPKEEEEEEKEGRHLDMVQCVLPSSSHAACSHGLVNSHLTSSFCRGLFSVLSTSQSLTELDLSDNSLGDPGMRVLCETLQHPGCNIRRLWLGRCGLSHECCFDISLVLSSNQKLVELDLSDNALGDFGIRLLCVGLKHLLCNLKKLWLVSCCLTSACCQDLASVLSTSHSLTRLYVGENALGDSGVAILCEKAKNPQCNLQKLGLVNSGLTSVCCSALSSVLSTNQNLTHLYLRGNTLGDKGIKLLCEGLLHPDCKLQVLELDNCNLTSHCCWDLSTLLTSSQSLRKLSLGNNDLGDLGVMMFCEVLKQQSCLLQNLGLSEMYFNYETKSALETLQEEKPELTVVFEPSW

SMILES	IC50 [nM]
CCOc1cc(C(=O)N(C)[C@H](c2cncc3cn[nH]c23)C2CN(CC)C2)ccc1-c1ccccc1 [Compound 134]	1000 to 15000
CCOc1cc(C(=O)N(C)[C@H](c2cncc3cn[nH]c23)C2CNC2)ccc1-c1cccc(C#N)c1 [Compound 142]	1000 to 15000
CCOc1cc(C(=O)N(C)[C@H](CC[N+](C)(C)[O-])c2cncc3cn[nH]c23)ccc1-c1cccc(F)c1 [Compound 145]	1000 to 15000
CCOc1cc(C(=O)N(C)[C@H](CCN(C)C)c2cncc3cn[nH]c23)ccc1C1CC1 [Compound 146]	100 to 500
CCOc1cc(C(=O)N(C)[C@@H](c2cncc3cn[nH]c23)C2CNC2)ccc1-c1ccccc1 [Compound 150]	1000 to 15000
CCOc1cc(C(=O)N(C)[C@@H](c2cncc3cn[nH]c23)[C@H]2CCNC2)ccc1-c1ccccc1 [Compound 152]	500 to 1000
CCOc1cc(C(=O)N(C)[C@H](CCN(C)C)c2cncc3cn[nH]c23)ccc1C(C)C [Compound 158]	1000 to 15000
CCOc1cc(C(=O)N(C)[C@H](CC[N+](C)(C)[O-])c2cncc3cn[nH]c23)ccc1-c1cccc(C)c1 [Compound 164]	< 100
CN(C(=O)c1ccc(-c2cccc(F)c2)c(OC2CC2)c1)[C@H](CC[N+](C)(C)[O-])c1cncc2cn[nH]c12 [Compound 165]	< 100
CCOc1cc(C(=O)N(C)[C@H](CC[N+](C)(C)[O-])c2cncc3cn[nH]c23)ccc1-c1ccccc1 [Compound 166]	< 100
CCNCC[C@H](c1cncc2cn[nH]c12)N(C)C(=O)c1ccc(-c2cccc(F)c2)c(OCC)c1 [Compound 167]	< 100
CCOc1cc(C(=O)N(C)[C@@H](c2cncc3cn[nH]c23)C2CNC2)ccc1-c1cccc(C)c1 [Compound 168]	< 100
CCOc1cc(C(=O)N(C)[C@@H](c2cncc3cn[nH]c23)C2CN(CC)C2)ccc1-c1cccc(C)c1 [Compound 169]	< 100
CCOc1cc(C(=O)N(C)[C@H](c2cncc3cn[nH]c23)C2CNC2)ccc1-c1cccc(C)c1 [Compound 170]	< 100
CCOc1cc(C(=O)N(C)[C@H](c2cncc3cn[nH]c23)C2CN(CC)C2)ccc1-c1cccc(C)c1 [Compound 171]	< 100
CCOc1cc(C(=O)N(C)[C@@H](c2cncc3cn[nH]c23)C2CN(CC)C2)ccc1-c1cccc(Cl)c1 [Compound 172]	< 100
CCOc1cc(C(=O)N(C)[C@@H](c2cncc3cn[nH]c23)C2CN(CC)C2)ccc1-c1cccc(F)c1 [Compound 173]	< 100
CCOc1cc(C(=O)N(C)[C@H](c2cncc3cn[nH]c23)C2CN(CC)C2)ccc1-c1cccc(F)c1 [Compound 174]	< 100
CCOc1cc(C(=O)N(C)[C@@H](c2cncc3cn[nH]c23)C2CN(C(C)C)C2)ccc1-c1cccc(F)c1 [Compound 175]	< 100
CCOc1cc(C(=O)N(C)[C@H](c2cncc3cn[nH]c23)C2CN(C(C)C)C2)ccc1-c1cccc(F)c1 [Compound 176]	100 to 500

SMILES	IC50 [nM]
CCOc1cc(C(=O)N(C)[C@@H](c2cncc3cn[nH]c23)C2CN(CC)C2)ccc1-c1ccccc1 [Compound 177]	< 100
CCOc1cc(C(=O)N(C)[C@@H](c2cncc3cn[nH]c23)C2CN(C)C2)ccc1-c1ccccc1 [Compound 178]	< 100
CCOc1cc(C(=O)N(C)[C@@H](c2cncc3cn[nH]c23)C2CN(C(C)C)C2)ccc1-c1ccccc1 [Compound 179]	< 100
CCOc1cccc(C(=O)N(C)[C@H](CCN(C)C)c2cnc(CO)c3cn[nH]c23)c1 [Compound 180]	500 to 1000
CCOc1cc(C(=O)N(C)[C@@H](c2cncc3cn[nH]c23)C2CNC2)ccc1-c1cccc(Cl)c1 [Compound 181]	< 100
CCOc1cc(C(=O)N(C)[C@H](c2cncc3cn[nH]c23)C2CNC2)ccc1-c1cccc(Cl)c1 [Compound 182]	< 100
CCOc1cc(C(=O)N(C)[C@@H](c2cncc3cn[nH]c23)C2CN(C)C2)ccc1-c1cccc(Cl)c1 [Compound 183]	< 100
CCOc1cc(C(=O)N(C)[C@H](CCN(CC)CCF)c2cncc3cn[nH]c23)ccc1-c1cccc(F)c1 [Compound 184]	< 100
CCOc1cc(C(=O)N(C)[C@H](CCN)c2cncc3cn[nH]c23)ccc1C [Compound 185]	1000 to 15000
CCOc1cc(C(=O)N(C)[C@H](CCN(C)C)c2cccc3cn[nH]c23)ccc1-c1cccc(F)c1 [Compound 186]	< 100
CCOc1cc(C(=O)N(C)[C@@H](CN2CC(N(C)C)C2)c2cncc3cn[nH]c23)ccc1-c1cccc(F)c1 [Compound 187]	< 100
CCOc1cc(C(=O)N(C)[C@H](CN(C)C)c2cnc(CO)c3cn[nH]c23)ccc1-c1cccc(F)c1 [Compound 188]	< 100
CCOc1cc(C(=O)N(C)C(c2cncc3cn[nH]c23)C2C[N+](C)([O-])C2)ccc1-c1cccc(F)c1 (stereo not drawn) [Compound 192]	100 to 500
CCOc1cc(C(=O)N(C)[C@H](CCNC)c2cncc3cn[nH]c23)ccc1-c1ccccc1 [Compound 193]	< 100
CCOc1cc(C(=O)N(C)[C@H](CCN(C)C)c2cccc3cn[nH]c23)ccc1-c1ccccc1 [Compound 194]	< 100
CCOc1cc(C(=O)N(C)[C@H](CCN(C)C)c2cccc3cn[nH]c23)ccc1-c1cccc(C)c1 [Compound 195]	< 100
CCOc1cc(C(=O)N(C)[C@H](CCN(C)C)c2cccc3cn[nH]c23)ccc1-c1cccc(C#N)c1 [Compound 196]	< 100
CCOc1cc(C(=O)N(C)[C@H](CCNC)c2cccc3cn[nH]c23)ccc1-c1cccc(F)c1 [Compound 197]	< 100
CN(C)CC[C@H](c1cccc2cn[nH]c12)N(C)C(=O)c1ccc(-c2cccc(F)c2)c(OC2CC2)c1 [Compound 198]	< 100

Further lines, results first:

IC50 [nM]	SMILES
< 100	CCOc1cc(C(=O)N(C)[C@H](c2cncc3cn[nH]c23)C2CN(C)C2)ccc1-c1ccccc1 [Compound 133]
< 100	CCOc1cc(C(=O)N(C)C(CCN(C)C)c2cccc3cn[nH]c23)ccc1-c1ccccc1 (stereo not drawn) [Compound 135]
< 100	CCOc1cc(C(=O)N(C)[C@H](CCNCCF)c2cncc3cn[nH]c23)ccc1-c1ccccc1 [Compound 136]
< 100	CCOc1cc(C(=O)N(C)[C@H](CCN(C)CCCF)c2cncc3cn[nH]c23)ccc1-c1cccc(F)c1 [Compound 137]
< 100	CCOc1cc(C(=O)N(C)[C@H](CCN(C)CCCF)c2cncc3cn[nH]c23)ccc1-c1ccccc1 [Compound 138]
< 100	CCOc1cc(C(=O)N(C)[C@H](CCNCCCF)c2cncc3cn[nH]c23)ccc1-c1cccc(Cl)c1 [Compound 139]
< 100	CCOc1cc(C(=O)N(C)[C@H](CCN)c2cncc3cn[nH]c23)ccc1-c1ccccc1 [Compound 140]
< 100	CCOc1cc(C(=O)N(C)[C@@H](c2cncc3cn[nH]c23)C2CNC2)ccc1-c1cccc(C#N)c1 [Compound 141]
< 100	CCOc1cc(C(=O)N(C)[C@@H](c2cncc3cn[nH]c23)C2CN(C)C2)ccc1-c1cccc(C#N)c1 [Compound 143]
< 100	CCOc1cc(C(=O)N(C)[C@H](c2cncc3cn[nH]c23)C2CN(C)C2)ccc1-c1cccc(C#N)c1 [Compound 144]
< 100	CCOc1cc(C(=O)N(C)[C@H](CCNC(=O)CC)c2cncc3cn[nH]c23)ccc1-c1cccc(F)c1 [Compound 147]
< 100	CCOc1cc(C(=O)N(C)[C@H](c2cncc3cn[nH]c23)C2CN(C)C2)ccc1-c1cccc(Cl)c1 [Compound 148]
< 100	CN(C)CC[C@H](c1cncc2cn[nH]c12)N(C)C(=O)c1ccc(-c2cccc(C#N)c2)c(OC2CC2)c1 [Compound 149]
< 100	CCOc1cc(C(=O)N(C)[C@H](c2cncc3cn[nH]c23)C2CNC2)ccc1-c1ccccc1 [Compound 151]
< 100	CCOc1cc(C(=O)N(C)[C@@H](c2cncc3cn[nH]c23)[C@H]2CCN(C)C2)ccc1-c1ccccc1 [Compound 153]
< 100	CCOc1cc(C(=O)N(C)[C@H](c2cncc3cn[nH]c23)[C@@H]2CCNC2)ccc1-c1ccccc1 [Compound 154]
< 100	CCOc1cc(C(=O)N(C)[C@H](CCN(C)CCF)c2cncc3cn[nH]c23)ccc1-c1ccccc1 [Compound 155]
< 100	CCOc1cc(C(=O)N(C)[C@H](CCN(C)C)c2cncc3cn[nH]c23)ccc1C1CCC1 [Compound 156]
< 100	CCOc1cc(C(=O)N(C)[C@H](CCN(C)C)c2cncc3cn[nH]c23)ccc1C1CCCC1 [Compound 157]
< 100	CCOc1cc(C(=O)N(C)[C@@H](c2cncc3cn[nH]c23)[C@@H]2CCNC2)ccc1-c1ccccc1 [Compound 159]
< 100	CCOc1cc(C(=O)N(C)[C@@H](c2cncc3cn[nH]c23)[C@@H]2CCN(C)C2)ccc1-c1ccccc1 [Compound 160]
< 100	CCOc1cc(C(=O)N(C)[C@H](CCN(C)C)c2cncc3cn[nH]c23)ccc1C(C)CC (stereo partly drawn) [Compound 161]
< 100	CCOc1cc(C(=O)N(C)[C@@H](CCN(C)C)c2cncc3cn[nH]c23)ccc1-c1cccc(F)c1 [Compound 162]
< 100	CCOc1cc(C(=O)N(C)[C@H](CC[N+](C)(C)[O-])c2cncc3cn[nH]c23)ccc1-c1cccc(Cl)c1 [Compound 163]
